≈ marks a conversion by molar mass, not a printed value.
How the values were obtained:
[1] = compound concentration 10 ppm, foliar spray, evaluated 7 days after inoculation
Human ACC2 = Human ACC2 (Homo sapiens, UniProt O00763); experiment: In vitro ACC2 inhibition assay (ADP-Glo), human ACC2; type: biochemical; details: 5 nM ACC2, 20 μM ATP, 20 μM acetyl-CoA
C. albicans ATCC 90028 = experiment: Anti-Fungal Activity Assay (broth microtiter MIC), C. albicans; type: cell-based, Candida albicans; details: Candida albicans, ATCC90028, 48 h, 3 replicates; MIC recorded at 48 h; read-out: MIC C. albicans ATCC 90028
How it was run: (§1)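 Candida strains were grown from frozen stock on Sabouraud dextrose agar overnight at 35° C, then suspended directly in RPMI 1640+MOPS and quantified against standard curves. Broth microdilution MIC plates followed CLSI M27-A3; MICs were read visually against growth control at 48 h, with a 24 h read added for soraphen.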

C. krusei ATCC 6258 = experiment: Anti-Fungal Activity Assay (broth microtiter MIC), C. krusei; type: cell-based, Candida krusei; details: Pichia kudriavzevii, ATCC6258, 48 h, 3 replicates; MIC recorded at 48 h; read-out: MIC C. krusei ATCC 6258
How it was run: as §1

[2] = tested on: C. parapsilosis ATCC 22019; experiment: Anti-Fungal Activity Assay (broth microtiter MIC), C. parapsilosis; type: cell-based, Candida parapsilosis; details: Lodderomyces parapsilosis, ATCC22019, 48 h, 3 replicates; MIC recorded at 48 h; read-out: MIC C. parapsilosis ATCC 22019
How it was run: as §1

Botrtyis cinerea (Bc) = experiment: Growth inhibition assay of fungal pathogens, Bc; type: cell-based; details: 48 hours; read-out: Concentration at 90% Inhibition, Bc
How it was run: (§2)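 Spores in 17% V8 medium exposed to compound at final 50, 10, 2 ppm or 2, 0.4, 0.08 ppm, with 2% DMSO. OD600 and visual ratings taken at 24 and 48 h, with blank subtracted. Percent growth inhibition derived from 48 h readings relative to 2% DMSO control.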

[3] = tested on: Collectotrichum graminicola (Cg); experiment: Growth inhibition assay of fungal pathogens, Cg; type: cell-based; details: 48 hours; read-out: Concentration at 90% Inhibition, Cg
How it was run: as §2

Diplodia maydis (Dm) = experiment: Growth inhibition assay of fungal pathogens, Dm; type: cell-based; details: Stenocarpella maydis; 48 hours; read-out: Concentration at 90% Inhibition, Dm
How it was run: as §2

[4] = tested on: Fusarium moniliforme (Fm); experiment: Growth inhibition assay of fungal pathogens, Fm; type: cell-based; details: Fusarium verticillioides; 48 hours; read-out: Concentration at 90% Inhibition, Fm
How it was run: as §2

[5] = tested on: Fusarium virguliforme (Fv); experiment: Growth inhibition assay of fungal pathogens, Fv; type: cell-based; details: 48 hours, read-out: Concentration at 90% Inhibition, Fv
How it was run: as §2

[6] = tested on: Phytophthora capsici (Pc); experiment: Growth inhibition assay of fungal pathogens, Pc; type: cell-based; details: 48 hours, read-out: Concentration at 90% Inhibition, Pc
How it was run: as §2

Rhizoctonia solani (Rs) = experiment: Growth inhibition assay of fungal pathogens, Rs; type: cell-based; details: 48 hours, read-out: Concentration at 90% Inhibition, Rs
Septoria tritici (St) = experiment: Growth inhibition assay of fungal pathogens, St; type: cell-based; details: Zymoseptoria tritici; 48 hours; read-out: Concentration at 90% Inhibition, St
How it was run: as §2

[7] = tested on: Blumeria graminis f sp. hordei; experiment: Foliar protection test, barley powdery mildew control; type: in vivo, Blumeria graminis f sp. hordei on Hordeum vulgare cv. Perry; details: 168 h, compound concentration 50 ppm, foliar spray, evaluated 7 days after inoculation, read-out: Barley Powdery Mildew Control at 50 ppm
How it was run: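 Barley cv. Perry at first true leaf (6 days) sprayed to wetness on both leaf sides with compound in 5% acetone/0.005% Tween 80, typically at 200, 100, 50, 10 or 2 ppm. Inoculated 24 h later by shaking spores from colonized plants; kept at 20-22 °C, 70% RH. Mildew colonization scored 7 days later as percent control.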

Fungal ACC2 = Fungal ACC2 (UniProt Q00955); details: read-out: Fungal ACC2 (IC50, in vitro ACC2 inhibition)
Fungal ACC2, sequence (Q00955 whole entry): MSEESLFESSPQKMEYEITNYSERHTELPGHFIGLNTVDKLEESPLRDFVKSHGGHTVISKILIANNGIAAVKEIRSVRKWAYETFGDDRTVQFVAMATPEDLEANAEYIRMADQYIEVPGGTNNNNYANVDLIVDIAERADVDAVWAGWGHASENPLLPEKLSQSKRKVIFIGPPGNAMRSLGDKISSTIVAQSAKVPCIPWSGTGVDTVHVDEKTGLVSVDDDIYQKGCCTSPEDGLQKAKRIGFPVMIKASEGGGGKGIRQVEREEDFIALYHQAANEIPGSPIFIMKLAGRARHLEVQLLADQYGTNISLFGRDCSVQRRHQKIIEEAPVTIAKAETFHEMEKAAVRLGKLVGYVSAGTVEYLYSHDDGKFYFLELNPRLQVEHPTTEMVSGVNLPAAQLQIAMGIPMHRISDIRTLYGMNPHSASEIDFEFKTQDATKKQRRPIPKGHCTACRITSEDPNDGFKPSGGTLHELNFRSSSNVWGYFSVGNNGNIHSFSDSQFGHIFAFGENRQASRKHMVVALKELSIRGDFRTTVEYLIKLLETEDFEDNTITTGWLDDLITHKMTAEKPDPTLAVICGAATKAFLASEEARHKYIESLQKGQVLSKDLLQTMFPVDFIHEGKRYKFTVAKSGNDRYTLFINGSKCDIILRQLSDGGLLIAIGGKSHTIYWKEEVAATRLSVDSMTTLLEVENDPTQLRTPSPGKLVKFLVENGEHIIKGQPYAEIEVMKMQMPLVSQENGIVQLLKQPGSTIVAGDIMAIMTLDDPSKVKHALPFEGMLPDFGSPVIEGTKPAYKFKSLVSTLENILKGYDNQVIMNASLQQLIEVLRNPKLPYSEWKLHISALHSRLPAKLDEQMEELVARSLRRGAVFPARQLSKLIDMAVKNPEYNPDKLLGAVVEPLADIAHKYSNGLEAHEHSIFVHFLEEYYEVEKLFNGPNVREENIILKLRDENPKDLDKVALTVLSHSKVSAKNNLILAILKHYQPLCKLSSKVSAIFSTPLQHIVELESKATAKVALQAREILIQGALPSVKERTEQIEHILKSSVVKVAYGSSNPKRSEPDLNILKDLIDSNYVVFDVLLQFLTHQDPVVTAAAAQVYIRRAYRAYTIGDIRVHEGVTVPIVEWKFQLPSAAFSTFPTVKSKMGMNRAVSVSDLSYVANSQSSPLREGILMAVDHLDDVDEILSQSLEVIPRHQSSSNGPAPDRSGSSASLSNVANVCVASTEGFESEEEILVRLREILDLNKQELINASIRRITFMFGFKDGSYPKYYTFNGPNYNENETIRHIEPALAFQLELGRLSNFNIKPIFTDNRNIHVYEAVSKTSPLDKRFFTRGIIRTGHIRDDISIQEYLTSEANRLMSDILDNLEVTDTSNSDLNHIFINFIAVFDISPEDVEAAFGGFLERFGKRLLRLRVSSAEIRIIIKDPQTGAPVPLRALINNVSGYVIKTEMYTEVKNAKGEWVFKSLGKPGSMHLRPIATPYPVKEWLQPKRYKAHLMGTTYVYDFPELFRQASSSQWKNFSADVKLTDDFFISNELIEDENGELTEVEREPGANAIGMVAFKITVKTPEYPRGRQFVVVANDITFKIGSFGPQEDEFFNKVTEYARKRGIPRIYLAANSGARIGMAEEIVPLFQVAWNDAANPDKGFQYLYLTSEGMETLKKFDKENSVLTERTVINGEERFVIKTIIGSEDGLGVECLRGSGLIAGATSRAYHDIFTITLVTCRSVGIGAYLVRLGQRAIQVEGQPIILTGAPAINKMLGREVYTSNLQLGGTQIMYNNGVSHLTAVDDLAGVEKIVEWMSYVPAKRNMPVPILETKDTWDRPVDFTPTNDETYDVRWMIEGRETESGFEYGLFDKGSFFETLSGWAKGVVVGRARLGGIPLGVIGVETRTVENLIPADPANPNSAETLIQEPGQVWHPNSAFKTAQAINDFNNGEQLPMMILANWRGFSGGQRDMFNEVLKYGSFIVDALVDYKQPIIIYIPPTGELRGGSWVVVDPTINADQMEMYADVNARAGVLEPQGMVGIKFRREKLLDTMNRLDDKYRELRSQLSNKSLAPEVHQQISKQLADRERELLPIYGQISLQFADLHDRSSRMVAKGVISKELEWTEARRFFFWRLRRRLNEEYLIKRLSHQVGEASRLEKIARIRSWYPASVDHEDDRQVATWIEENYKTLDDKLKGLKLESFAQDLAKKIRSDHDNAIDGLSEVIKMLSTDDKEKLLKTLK

Human ACC2, sequence (O00763 whole entry): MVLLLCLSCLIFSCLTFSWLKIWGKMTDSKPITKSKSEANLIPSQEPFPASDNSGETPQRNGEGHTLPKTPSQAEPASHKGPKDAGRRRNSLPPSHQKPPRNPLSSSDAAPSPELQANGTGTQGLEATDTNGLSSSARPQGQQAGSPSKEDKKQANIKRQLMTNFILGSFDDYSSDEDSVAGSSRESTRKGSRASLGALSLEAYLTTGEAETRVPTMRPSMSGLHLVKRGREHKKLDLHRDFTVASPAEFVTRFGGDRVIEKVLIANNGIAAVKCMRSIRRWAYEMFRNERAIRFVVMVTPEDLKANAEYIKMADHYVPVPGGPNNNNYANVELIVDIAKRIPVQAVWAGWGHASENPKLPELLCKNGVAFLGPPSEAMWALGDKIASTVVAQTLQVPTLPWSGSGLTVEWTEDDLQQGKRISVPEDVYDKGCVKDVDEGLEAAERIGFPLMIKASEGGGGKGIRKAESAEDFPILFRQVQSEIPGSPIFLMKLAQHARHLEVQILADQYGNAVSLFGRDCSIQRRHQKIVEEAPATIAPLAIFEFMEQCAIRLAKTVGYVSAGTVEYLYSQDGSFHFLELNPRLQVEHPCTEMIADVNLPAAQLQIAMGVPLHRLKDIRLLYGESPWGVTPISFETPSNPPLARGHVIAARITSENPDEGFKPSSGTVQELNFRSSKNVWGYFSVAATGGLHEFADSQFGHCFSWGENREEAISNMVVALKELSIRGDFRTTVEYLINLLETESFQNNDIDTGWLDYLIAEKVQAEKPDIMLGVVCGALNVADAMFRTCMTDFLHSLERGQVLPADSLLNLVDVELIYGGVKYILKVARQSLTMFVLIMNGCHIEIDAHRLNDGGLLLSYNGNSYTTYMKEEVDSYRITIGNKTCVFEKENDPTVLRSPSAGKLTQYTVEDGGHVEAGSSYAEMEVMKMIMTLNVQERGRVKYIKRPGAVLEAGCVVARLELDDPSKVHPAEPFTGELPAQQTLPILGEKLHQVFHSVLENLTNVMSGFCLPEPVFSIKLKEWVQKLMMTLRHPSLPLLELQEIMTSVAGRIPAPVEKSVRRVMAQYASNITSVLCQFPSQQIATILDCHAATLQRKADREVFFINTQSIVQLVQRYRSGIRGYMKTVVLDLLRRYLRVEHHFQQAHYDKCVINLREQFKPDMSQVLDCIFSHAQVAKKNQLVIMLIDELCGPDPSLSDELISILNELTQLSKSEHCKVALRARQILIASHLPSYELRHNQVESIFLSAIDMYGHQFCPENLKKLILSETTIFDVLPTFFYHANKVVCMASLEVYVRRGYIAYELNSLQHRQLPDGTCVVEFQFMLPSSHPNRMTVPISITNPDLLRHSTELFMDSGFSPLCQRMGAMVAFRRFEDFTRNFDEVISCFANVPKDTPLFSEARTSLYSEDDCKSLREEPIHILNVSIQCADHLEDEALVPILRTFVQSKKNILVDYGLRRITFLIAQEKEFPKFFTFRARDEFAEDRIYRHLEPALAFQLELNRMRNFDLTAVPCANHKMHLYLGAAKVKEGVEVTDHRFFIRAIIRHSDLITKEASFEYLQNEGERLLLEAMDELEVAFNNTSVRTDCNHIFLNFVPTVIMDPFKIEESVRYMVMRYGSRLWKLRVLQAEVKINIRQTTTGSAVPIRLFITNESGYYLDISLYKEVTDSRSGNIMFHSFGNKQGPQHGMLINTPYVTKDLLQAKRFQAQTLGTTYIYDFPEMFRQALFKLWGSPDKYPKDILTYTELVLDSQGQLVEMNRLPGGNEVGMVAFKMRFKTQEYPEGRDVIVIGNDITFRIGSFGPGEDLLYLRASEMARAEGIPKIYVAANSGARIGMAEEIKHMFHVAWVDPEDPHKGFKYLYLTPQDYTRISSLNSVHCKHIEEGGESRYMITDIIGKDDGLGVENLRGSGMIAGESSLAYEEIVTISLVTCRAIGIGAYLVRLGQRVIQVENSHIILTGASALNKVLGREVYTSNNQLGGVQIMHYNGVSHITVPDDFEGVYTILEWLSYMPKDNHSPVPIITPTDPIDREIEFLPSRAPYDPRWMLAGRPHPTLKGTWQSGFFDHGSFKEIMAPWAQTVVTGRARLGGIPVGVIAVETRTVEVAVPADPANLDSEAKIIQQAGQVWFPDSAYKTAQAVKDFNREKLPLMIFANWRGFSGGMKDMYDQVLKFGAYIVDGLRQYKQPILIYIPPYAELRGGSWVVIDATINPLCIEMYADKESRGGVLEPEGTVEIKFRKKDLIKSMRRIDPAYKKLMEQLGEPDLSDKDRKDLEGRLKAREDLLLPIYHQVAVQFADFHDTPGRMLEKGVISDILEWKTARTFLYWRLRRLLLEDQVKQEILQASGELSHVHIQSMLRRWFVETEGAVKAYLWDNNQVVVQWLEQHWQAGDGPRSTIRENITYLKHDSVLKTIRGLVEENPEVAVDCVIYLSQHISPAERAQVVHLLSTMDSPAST

SMILES | Barley Powdery Mildew Control at 10 ppm [1] | IC50 (Human ACC2) [nM] | MIC (C. albicans ATCC 90028) [µg/mL] | MIC (C. krusei ATCC 6258) [µg/mL] | MIC [2] [µg/mL] | IC90 (Botrtyis cinerea (Bc)) [µg/mL] | IC90 [3] [µg/mL] | IC90 (Diplodia maydis (Dm)) [µg/mL] | IC90 [4] [µg/mL] | IC90 [5] [µg/mL] | IC90 [6] [µg/mL] | IC90 (Rhizoctonia solani (Rs)) [µg/mL] | IC90 (Septoria tritici (St)) [µg/mL] | pest or weed control at 50 ppm [7] [%] | IC50 (Fungal ACC2) [nM]
COCCO[C@@H](Cn1c(=O)n([C@H]2CCCNC2=O)c(=O)c2c(C)c(-n3cccn3)sc21)c1cc(F)ccc1OC [Compound I-45, 1-((R)-2-(5-fluoro-2-methoxyphenyl)-2-(2-methoxy-ethoxy)ethyl)-5-methyl-3-((S)-2-oxopiperidin-3-yl)-6-(I H-pyrazol-1-yl)thieno[2,3-d]pyrimidine-2,4(1H,3H)-dione] | D (provided a compound having <25% control of barley powdery mildew) | 10 to 100 | 2.1 to 4 (≈ 3.67 to 7 µM) | 2.1 to 4 (≈ 3.67 to 7 µM) | 2.1 to 4 (≈ 3.67 to 7 µM) | > 50 | > 50 | > 50 | > 50 | > 50 | > 50 | > 50 | > 50 | 50 to 69 | 2 to 10
COCCO[C@@H](Cn1c(=O)n([C@@H]2CCCNC2=O)c(=O)c2c(C)c(-n3cccn3)sc21)c1cc(F)ccc1OC [Compound I-46, 1-((R)-2-(5-fluoro-2-methoxyphenyl)-22-(2-methoxy-ethoxy)ethyl)-5-methyl-3-((R)-2-oxopiperidin-3-yl)-6-(I H-pyrazol-1-yl)thieno[2,3-d]pyrimidine-2,4(1H,3H)-dione] | D (provided a compound having <25% control of barley powdery mildew) | 100 to 1000 | 2.1 to 4 (≈ 3.67 to 7 µM) | 2.1 to 4 (≈ 3.67 to 7 µM) | 2.1 to 4 (≈ 3.67 to 7 µM) | > 50 | > 50 | > 50 | > 50 | > 50 | > 50 | > 50 | > 50 | 50 to 69 | 10 to 100
COCCO[C@@H](Cn1c(=O)n([C@H]2CCCN(C)C2=O)c(=O)c2c(C)c(-n3cccn3)sc21)c1cc(F)ccc1OC [Compound I-47, 1-((R)-2-(5-fluoro-2-methoxyphenyl)-2-(2-methoxy-ethoxy)ethyl)-5-methyl-3-((S)-1-methyl-2-oxopiperidin-3-yl)-6-(I H-pyrazol-1-yl)thieno[2,3-d]pyrimidine-2,4(1H,3H)-dione] | D (provided a compound having <25% control of barley powdery mildew) | 100 to 1000 | 2.1 to 4 (≈ 3.59 to 6.83 µM) | 2.1 to 4 (≈ 3.59 to 6.83 µM) | 2.1 to 4 (≈ 3.59 to 6.83 µM) | > 50 | > 50 | > 50 | > 50 | > 50 | > 50 | > 50 | > 50 | 50 to 69 | 2 to 10
COCCO[C@@H](Cn1c(=O)n([C@@H]2CCCN(C)C2=O)c(=O)c2c(C)c(-n3cccn3)sc21)c1cc(F)ccc1OC [Compound I-48, 1-((R)-2-(5-fluoro-2-methoxyphenyl)-2-(2-methoxy-ethoxy)ethyl)-5-methyl-3-((R)-1-methyl-2-oxopiperidin-3-yl)-6-(1H-pyrazol-1-yl)thieno[2,3-d]pyrimidine-2,4(1H,3H)-dione] | C (provided a compound having from 25 to 49% control of barley powdery mildew) | 100 to 1000 | 2.1 to 4 (≈ 3.59 to 6.83 µM) | 2.1 to 4 (≈ 3.59 to 6.83 µM) | 2.1 to 4 (≈ 3.59 to 6.83 µM) | > 50 | > 50 | > 50 | > 50 | > 50 | > 50 | > 50 | > 50 | 50 to 69 | 10 to 100
COc1ccc(F)cc1[C@H](Cn1c(=O)n([C@H]2CCCNC2=O)c(=O)c2c(C)c(-n3nccn3)sc21)OCCO [Compound I-70, 1-((R)-2-(5-fluoro-2-methoxyphenyl)-2-(2-hydroxy-ethoxy)ethyl)-5-methyl-3-((S)-2-oxopiperidin-3-yl)-6-(2H-1,2,3-triazol-2-yl)thieno[2,3-d]pyrimidine-2,4(1H,3H)-dione] | D (provided a compound having <25% control of barley powdery mildew) | 10 to 100 | 2.1 to 4 (≈ 3.76 to 7.16 µM) | 2.1 to 4 (≈ 3.76 to 7.16 µM) | 2.1 to 4 (≈ 3.76 to 7.16 µM) | 2 (≈ 3.58 µM) | 10 (≈ 17.9 µM) | > 50 | 2 (≈ 3.58 µM) | 2 (≈ 3.58 µM) | > 50 | 10 (≈ 17.9 µM) | > 50 | 50 to 69 | 0.7 to 2
COc1ccc(F)cc1[C@H](Cn1c(=O)n([C@@H]2CCCNC2=O)c(=O)c2c(C)c(-n3nccn3)sc21)OCCO [Compound I-71, 1-((R)-2-(5-fluoro-2-methoxyphenyl)-2-(2-hydroxy-ethoxy)ethyl)-5-methyl-3-((R)-2-oxopiperidin-3-yl)-6-(2H-1,2,3-triazol-2-yl)thieno[2,3-d]pyrimidine-2,4(1H,3H)-dione] | D (provided a compound having <25% control of barley powdery mildew) | 2 to 10 | 2.1 to 4 (≈ 3.76 to 7.16 µM) | 2.1 to 4 (≈ 3.76 to 7.16 µM) | 2.1 to 4 (≈ 3.76 to 7.16 µM) | 2 (≈ 3.58 µM) | 10 (≈ 17.9 µM) | > 50 | 2 (≈ 3.58 µM) | 2 (≈ 3.58 µM) | > 50 | 2 (≈ 3.58 µM) | > 50 | 50 to 69 | 0.7 to 2
COc1ccc(F)cc1[C@H](Cn1c(=O)n([C@H]2CCCN(C)C2=O)c(=O)c2c(C)c(-n3nccn3)sc21)OCCO [Compound I-72, 1-((R)-2-(5-fluoro-2-methoxyphenyl)-2-(2-hydroxyethoxy)ethyl)-5-methyl-3-((S)-1-methyl-2-oxopiperidin-3-yl)-6-(2H-1,2,3-triazol-2-yl)thieno[2,3-d]pyrimidine-2,4(1H,3H)-dione] | D (provided a compound having <25% control of barley powdery mildew) | 2 to 10 | 2.1 to 4 (≈ 3.67 to 6.99 µM) | 2.1 to 4 (≈ 3.67 to 6.99 µM) | 2.1 to 4 (≈ 3.67 to 6.99 µM) | > 50 | 10 (≈ 17.5 µM) | 10 (≈ 17.5 µM) | 2 (≈ 3.49 µM) | 2 (≈ 3.49 µM) | > 50 | 2 (≈ 3.49 µM) | > 50 | 25 to 49 | 0.7 to 2
COc1ccc(F)cc1[C@H](Cn1c(=O)n([C@@H]2CCCN(C)C2=O)c(=O)c2c(C)c(-n3nccn3)sc21)OCCO [Compound I-73, 1-((R)-2-(5-fluoro-2-methoxyphenyl)-2-(2-hydroxy-ethoxy)ethyl)-5-methyl-3-((R)-1-methyl-2-oxopiperidin-3-yl)-6-(2H-1,2,3-triazol-2-yl)thieno[2,3-d]pyrimidine-2,4(1H,3H)-dione] | D (provided a compound having <25% control of barley powdery mildew) | 10 to 100 | 2.1 to 4 (≈ 3.67 to 6.99 µM) | 2.1 to 4 (≈ 3.67 to 6.99 µM) | 2.1 to 4 (≈ 3.67 to 6.99 µM) | 10 (≈ 17.5 µM) | 2 (≈ 3.49 µM) | 2 (≈ 3.49 µM) | 2 (≈ 3.49 µM) | 2 (≈ 3.49 µM) | > 50 | 2 (≈ 3.49 µM) | > 50 | 50 to 69 | 0.7 to 2
COc1ccc(F)cc1[C@H](Cn1c(=O)n([C@H]2CCNC2=O)c(=O)c2c(C)c(-n3nccn3)sc21)OCCO [Compound I-80, 1-((R)-2-(5-fluoro-2-methoxyphenyl)-2-(2-hydroxy-ethoxy)ethyl)-5-methyl-3-((S)-2-oxopyrrolidin-3-yl)-6-(2H-1,2,3-triazol-2-yl)thieno[2,3-d]pyrimidine-2,4(1H,3H)-dione] | D (provided a compound having <25% control of barley powdery mildew) | 2 to 10 | 2.1 to 4 (≈ 3.86 to 7.35 µM) | 2.1 to 4 (≈ 3.86 to 7.35 µM) | 2.1 to 4 (≈ 3.86 to 7.35 µM) | 2 (≈ 3.67 µM) | > 50 | > 50 | 2 (≈ 3.67 µM) | 10 (≈ 18.4 µM) | > 50 | 10 (≈ 18.4 µM) | > 50 | 25 to 49 | 0.7 to 2

Source: patent US20190330224A1, “ACC INHIBITORS AND USES THEREOF” (Gilead Apollo, LLC, priority 2015, published 2019)
